Assay results from US11299496B2, “Ligands for alpha-7 nicotinic acetylcholine receptors and methods of treating neurological and inflammatory conditions” (Northeastern University, priority 2014, dated 2022).

What was measured:
human alpha-7 nAChR [1] = target: T1, human alpha-7 nAChR (Homo sapiens, UniProt P36544); test: Two-electrode voltage clamp of alpha-7 nAChR expressed in Xenopus oocytes (net charge); type: cell-based; conditions: for Charge Alone: compound alone acting as an allosteric agonist; for Charge Alone / Charge +C: area under the curve of current vs. time; for Charge +C: compound together with choline or ACh, includes PAM and ago-PAM activity
T1 construct: expressed in transfected cells; host or cells: Xenopus laevis oocytes (cRNA injection)
Summary of the method: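 Human α7 nAChR co-expressed with RIC-3 in Xenopus oocytes; two-electrode clamp at −60 mV, 12 s applications in Ringer's pH 7.3. Net charge integrated over 120 s from application, normalized to prior ACh controls; measured for compound alone and with choline or ACh; n≥4 oocytes.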

human alpha-7 nAChR [2] = target: T1, human alpha-7 nAChR; test: Electrophysiological evaluation of PAMs and ago-PAMs in Xenopus oocytes (direct activation, direct and primed potentiation); type: cell-based
Description: Electrophysiological evaluation in Xenopus oocytes was used to determine the potency and efficacy with which PAMs and ago-PAMs of the invention produce self-induced agonism and positive allosteric modulation of the orthosteric, agonist-induced activation of the alpha-7 nAChR. The ability of these compounds to increase the maximal channel influx and to enhance the activity of the receptor on its own as well as in presence of choline is denoted by Imax and EC50 respectively. The details of cDNA clones and RNA for injection was as published. Thakur et. al. 2013, J. Med. Chem. 2013 Nov. 14; 56(21):8943-7. doi: 10.1021/jm401267t). For experiments involving PAM and ago-PAM analogs, where standard levels of expression result in ion currents too large to be recorded in voltage clamp, experiments were typically conducted 1-3 days after RNA injection.
Two-electrode voltage clamp was conducted using OpusXpress 6000A (Molecular Devices, Union City, Calif.). Both the voltage and current electrodes were filled with 3 M KCl. Oocytes were voltage-clamped at −60 mV except when determining the effect of voltage on channel activation. The oocytes were bath-perfused with Ringer's solution (115 mM NaCl, 2.5 mM KCl, 1.8 mM CaCl2, 10 mM HEPES, and 1 μM atropine, pH 7.2) with a flow rate of 2 mL/min. To evaluate the effects of experimental compounds on ACh-evoked responses of alpha-7 nAChRs expressed in oocytes, the initial control responses were measured with two applications of ACh alone, before applications of experimental drugs alone or co-applications with ACh. The agonist solutions were applied from a 96-well plate via disposable tips, and the drugs were either co-applied with ACh by the OpusXpress pipette delivery system or bath-applied using the OpusXpress system to switch the running buffer. Drug applications were for 12 s followed by a 181 s washout period and usually alternated between controls and test solutions. After experimental drug applications, follow-up control applications of ACh were made to determine primed potentiation, desensitization or rundown of the receptors. Data were collected at 50 Hz, filtered at 20 Hz, analyzed by Clampfit 9.2 (Molecular Devices) and Excel (Microsoft, Redmond Wash.), and normalized to the averaged current of the two initial control responses. Data were expressed as mean±SEM from at least four oocytes for each experiment. For the concentration-response relationships, responses were normalized to the net charge of the most adjacent prior control.
A detailed comparative activity profile of select ago-PAMs/PAMs based on the structure of 4BP-TQS was obtained. […] They also functioned as direct PAMs, producing responses when co-applied with ACh. However, the primed potentiation of response to ACh alone was less after direct potentiation than after direct activation, due to residual induction of PAM-insensitive desensitization.

CCI mice = test: Chronic constriction injury (CCI) model, mechanical allodynia (von Frey); type: in vivo, mouse; conditions: dose of 1 mg/kg, FIG. 5B
Protocol: Mice were anesthetized with pentobarbital (45 mg/kg, i.p.). An incision was made just below the hipbone, parallel to the sciatic nerve. The right common sciatic nerve was exposed at the level proximal to the sciatic trifurcation, and a nerve segment 3-5 mm long was separated from surrounding connective tissue. Two loose ligatures with 6-0 silk suture were made around the nerve with a 1.0-1.5 mm interval between them. Muscles were closed with suture thread and the wound with wound clips. […] Any suture that remained after two weeks was removed from the healed surgical wound. Mechanical allodynia (von Frey test) was measured before and after drug injections.
The antiallodynic effects of test compounds were assessed in three experiments consisting of CCI mice and sham control mice. […] The anti-allodynic effects of alpha-7 nAChRs PAMs and ago-PAMs were tested (four doses and vehicle control, N=10 mice/group, administered i.p.) in the CCI model. Mice were assessed for mechanical allodynia 2 weeks after the CCI surgery. All these studies will be conducted in blinded manner. CCI and sham control mice received two conditioning sessions per day (vehicle in the morning and drug in the afternoon) over the course of 3 days, and were tested for a place preference on day 7 without any injections.
Pain behavioral data are presented as mean±S.E.M. (see FIGS. 5A and 5B). Statistical analysis was performed using the t-test or two-way analysis of variance test, followed by the post-hoc Bonferroni's test. All differences were considered significant at p<0.05, and significant differences are shown with asterisks in FIGS. 5A and 5B. ED50 values with 95% confidence limits (CL) were calculated by unweighted least-squares linear regression.

Solubility comparison = type: physicochemical

T1 sequence (P36544 23-502): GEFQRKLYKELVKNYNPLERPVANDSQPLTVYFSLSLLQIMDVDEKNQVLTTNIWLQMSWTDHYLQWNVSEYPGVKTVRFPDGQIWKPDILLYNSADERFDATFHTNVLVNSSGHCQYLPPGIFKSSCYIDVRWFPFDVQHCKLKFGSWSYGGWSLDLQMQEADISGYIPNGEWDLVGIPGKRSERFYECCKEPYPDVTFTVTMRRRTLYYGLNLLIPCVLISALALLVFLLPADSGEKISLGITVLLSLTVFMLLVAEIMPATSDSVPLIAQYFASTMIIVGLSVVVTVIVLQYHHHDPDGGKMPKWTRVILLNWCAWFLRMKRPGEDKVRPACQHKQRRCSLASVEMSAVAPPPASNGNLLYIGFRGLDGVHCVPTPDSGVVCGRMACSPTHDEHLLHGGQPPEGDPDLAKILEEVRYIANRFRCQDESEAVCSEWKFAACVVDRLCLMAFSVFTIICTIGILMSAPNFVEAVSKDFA

**Q.** Which “Charge Alone” value (human alpha-7 nAChR [1]) does the source give for `NS(=O)(=O)c1ccc2c(c1)[C@H]1C=CC[C@H]1[C@@H](c1cc(Br)cs1)N2` (stereo in doubt) [Compound 37, 4-(4-bromothiophen-2-yl)-3a,4,5,9b-tetrahydro-3H-cyclopenta[c]quinoline-8-sulfonamide] here?
**A.** 0

**Q.** What about the “Charge +C” value (human alpha-7 nAChR [1]) of the same compound?
**A.** 163

**Q.** What about the “direct activation when applied alone” value (human alpha-7 nAChR [2]; FIGS. 2A-2F) of the same compound?
**A.** negligible direct activation

**Q.** And the “primed potentiation of subsequent responses to ACh applied alone” value (human alpha-7 nAChR [2]; FIGS. 2A-2F)?
**A.** large primed potentiation

**Q.** And the “peak efficacy in the presence of ACh” value (human alpha-7 nAChR [2]; GAT154 vs GAT155)?
**A.** almost equal peak efficacy

**Q.** And the “threshold for pain in the CCI model” value (CCI mice)?
**A.** effective in increasing the threshold for pain

**Q.** And the “solubility compared to GAT107” value (Solubility comparison)?
**A.** significantly better solubility compared to GAT107

**Q.** Which results are given for `CC(C)(C)NC(=O)Oc1ccc([C@H]2Nc3ccc(S(N)(=O)=O)cc3[C@H]3C=CC[C@H]32)cc1` (stereo in doubt) [Compound 65, 4-(8-sulfamoyl-3a,4,5,9b-tetrahydro-3H-cyclopenta[c]quinolin-4-yl)phenyl tert-butylcarbamate]?
**A.** Charge Alone (human alpha-7 nAChR [1]): 332; Charge +C (human alpha-7 nAChR [1]): 740; effectiveness as ago-PAM compared to GAT154 (human alpha-7 nAChR [2]): almost equally effective as ago-PAMs; effectiveness as allosteric agonist compared to GAT154 (human alpha-7 nAChR [2]): more effective as allosteric agonists

**Q.** With `CC(C)(C)CC(=O)Nc1ccc([C@H]2Nc3ccc(S(N)(=O)=O)cc3[C@H]3C=CC[C@H]32)cc1` (stereo in doubt) [Compound 64, 3,3-dimethyl-N-(4-(8-sulfamoyl-3a,4,5,9b-tetrahydro-3H-cyclopenta[c]quinolin-4-yl)phenyl)butanamide] as the compound, how does the “Charge Alone” value (human alpha-7 nAChR [1]) read?
**A.** 597

**Q.** And the “Charge +C” value (human alpha-7 nAChR [1])?
**A.** 652

**Q.** What about the “effectiveness as ago-PAM compared to GAT154” value (human alpha-7 nAChR [2]) of the same compound?
**A.** almost equally effective as ago-PAMs

**Q.** What about the “effectiveness as allosteric agonist compared to GAT154” value (human alpha-7 nAChR [2]) of the same compound?
**A.** more effective as allosteric agonists

**Q.** For `CC(C)(C)OC(=O)Nc1ccc([C@H]2Nc3ccc(S(N)(=O)=O)cc3[C@H]3C=CC[C@H]32)cc1` [Compound 24], which “Charge Alone” value (human alpha-7 nAChR [1]) is on record?
**A.** 212

**Q.** And the “Charge +C” value (human alpha-7 nAChR [1])?
**A.** 580

**Q.** And the “'ago' component / ago-PAM activity” value (human alpha-7 nAChR [1]; in words)?
**A.** increased ‘ago’ component

**Q.** And the “types of activity (direct activation, direct potentiation, primed potentiation)” value (human alpha-7 nAChR [2])?
**A.** exhibited all three types of activities

**Q.** What does the source list for `O=S(=O)(NC1CCCCC1)c1ccc2c(c1)[C@H]1C=CC[C@H]1[C@@H](c1ccc(Br)cc1)N2` (stereo in doubt) [Compound 102, 4-(4-bromophenyl)-N-cyclohexyl-3a,4,5,9b-tetrahydro-3H-cyclopenta[c]quinoline-8-sulfonamide]?
**A.** Charge Alone (human alpha-7 nAChR [1]): Inactive; Charge +C (human alpha-7 nAChR [1]): Inactive

**Q.** Which “Charge +C” value (human alpha-7 nAChR [1]) does the source give for `NS(=O)(=O)c1ccc2c(c1)[C@H]1C=CC[C@H]1[C@@H](Cc1ccccc1)N2` (stereo in doubt) [Compound 13, 4-benzyl-3a,4,5,9b-tetrahydro-3H-cyclopenta[c]quinoline-8-sulfonamide] here?
**A.** 76

**Q.** With `CC(=O)NS(=O)(=O)c1ccc2c(c1)[C@H]1C=CC[C@H]1[C@@H](c1ccc(Br)cc1)N2` (stereo in doubt) [Compound 116, N-((4-(4-bromophenyl)-3a,4,5,9b-tetrahydro-3H-cyclopenta[c]quinolin-8-yl)sulfonyl)acetamide] as the compound, how does the “Charge Alone” value (human alpha-7 nAChR [1]) read?
**A.** Inactive

**Q.** What about the “Charge +C” value (human alpha-7 nAChR [1]) of the same compound?
**A.** Inactive

**Q.** For `NS(=O)(=O)c1ccc2c(c1)[C@H]1C=CC[C@H]1CN2` (stereo in doubt) [Compound 33, 3a,4,5,9b-tetrahydro-3H-cyclopenta[c]quinoline-8-sulfonamide], which “Charge Alone” value (human alpha-7 nAChR [1]) is on record?
**A.** Inactive

**Q.** What about the “Charge +C” value (human alpha-7 nAChR [1]) of the same compound?
**A.** Inactive

**Q.** With `NS(=O)(=O)c1ccc([C@H]2Nc3ccc(Br)cc3[C@H]3C=CC[C@H]32)cc1` (stereo in doubt) [Compound 4, 4-(8-bromo-3a,4,5,9b-tetrahydro-3H-cyclopenta[c]quinolin-4-yl)benzenesulfonamide] as the compound, how does the “Charge Alone” value (human alpha-7 nAChR [1]) read?
**A.** 0

**Q.** And the “Charge +C” value (human alpha-7 nAChR [1])?
**A.** 8.4

**Q.** What does the source list for `CCCNS(=O)(=O)c1ccc2c(c1)[C@H]1C=CC[C@H]1[C@H](c1ccc(Br)cc1)N2` (stereo in doubt) [Compound 106, 4-(4-bromophenyl)-N-propyl-3a,4,5,9b-tetrahydro-3H-cyclopenta[c]quinoline-8-sulfonamide]?
**A.** Charge Alone (human alpha-7 nAChR [1]): Inactive; Charge +C (human alpha-7 nAChR [1]): Inactive

**Q.** What does the source list for `NS(=O)(=O)c1ccc2c(c1)[C@H]1C=CC[C@H]1[C@@H](c1ccc(Br)nc1)N2` [Compound 94, 4-(6-bromopyridin-3-yl)-3a,4,5,9b-tetrahydro-3H-cyclopenta[c]quinoline-8-sulfonamide]?
**A.** Charge Alone (human alpha-7 nAChR [1]): 29; Charge +C (human alpha-7 nAChR [1]): 348

**Q.** Which results are given for `CS(=O)(=O)Nc1ccc2c(c1)[C@H]1C=CC[C@H]1[C@@H](c1ccc(Br)cc1)N2` (stereo in doubt) [Compound 115, N-(4-(4-bromophenyl)-3a,4,5,9b-tetrahydro-3H-cyclopenta[c]quinolin-8-yl)methanesulfonamide]?
**A.** Charge Alone (human alpha-7 nAChR [1]): Inactive; Charge +C (human alpha-7 nAChR [1]): Inactive

**Q.** What does the source list for `NS(=O)(=O)c1ccc2c(c1)[C@H]1C=CC[C@H]1[C@@H](c1ccncc1)N2` (stereo in doubt) [Compound 2, 4-(pyridin-4-yl)-3a,4,5,9b-tetrahydro-3H-cyclopenta[c]quinoline-8-sulfonamide]?
**A.** Charge Alone (human alpha-7 nAChR [1]): Inactive; Charge +C (human alpha-7 nAChR [1]): Inactive

**Q.** Which “Charge Alone” value (human alpha-7 nAChR [1]) does the source give for `O=C(O)c1ccc2c(c1)[C@H]1C=CC[C@H]1[C@@H](c1ccc(Cl)cc1Cl)N2` [Compound 29, 4-(2,4-dichlorophenyl)-3a,4,5,9b-tetrahydro-3H-cyclopenta[c]quinoline-8-carboxylic acid] here?
**A.** Inactive

**Q.** And the “Charge +C” value (human alpha-7 nAChR [1])?
**A.** Inactive

**Q.** Which “Charge Alone” value (human alpha-7 nAChR [1]) does the source give for `CCCCNS(=O)(=O)c1ccc2c(c1)[C@H]1C=CC[C@H]1[C@@H](c1ccc(Br)cc1)N2` (stereo in doubt) [Compound 110, 4-(4-bromophenyl)-N-butyl-3a,4,5,9b-tetrahydro-3H-cyclopenta[c]quinoline-8-sulfonamide] here?
**A.** Inactive

**Q.** What about the “Charge +C” value (human alpha-7 nAChR [1]) of the same compound?
**A.** Inactive

**Q.** Which “Charge +C” value (human alpha-7 nAChR [1]) does the source give for `NS(=O)(=O)c1ccc2c(c1)[C@H]1C=CC[C@H]1[C@@H](c1ccccc1[N+](=O)[O-])N2` (stereo in doubt) [Compound 20, 4-(2-nitrophenyl)-3a,4,5,9b-tetrahydro-3H-cyclopenta[c]quinoline-8-sulfonamide] here?
**A.** 52

**Q.** Which “Charge +C” value (human alpha-7 nAChR [1]) does the source give for `NS(=O)(=O)c1ccc2c(c1)[C@H]1C=CC[C@H]1[C@@H](c1csc(Br)c1)N2` (stereo in doubt) [Compound 35, 4-(5-bromothiophen-3-yl)-3a,4,5,9b-tetrahydro-3H-cyclopenta[c]quinoline-8-sulfonamide] here?
**A.** 157
